# Data reported in patent US8153560B2, “Pesticidal active mixtures comprising aminothiazoline compounds” (BASF SE, priority 2007, dated 2012).
# Key:
# [1] = system: vetch aphid (Megoura viciae); experiment: Test B.1: control of vetch aphid on broad bean leaf disks, contact or systemic; type: in vivo
# Experimental: For evaluating control of vetch aphid (Megoura viciae) through contact or systemic means the test unit consisted of 24-well-microtiter plates containing broad bean leaf disks.
# The compounds or mixtures were formulated using a solution containing 75 wt % water and 25 wt % DMSO. Different concentrations of formulated compounds or mixtures were sprayed onto the leaf disks at 2.5 μl, using a custom built micro atomizer, at two replications.
# (§1) For experimental mixtures in these tests identical volumes of both mixing partners at the desired concentrations respectively, were mixed together.
# After application, the leaf disks were air-dried and 5-8 adult aphids placed on the leaf disks inside the microtiter plate wells. The aphids were then allowed to suck on the treated leaf disks and incubated at 23±1° C., 50±5% RH (relative humidity) for 5 days. Aphid mortality and fecundity was then visually assessed.
# [2] = system: green peach aphid (Myzus persicae); experiment: Test B.2: control of green peach aphid through systemic means, artificial diet under membrane; type: in vivo
# Description: For evaluating control of green peach aphid (Myzus persicae) through systemic means the test unit consisted of 96-well-microtiter plates containing liquid artificial diet under an artificial membrane.
# The compounds or mixtures were formulated using a solution containing 75 wt % water and 25 wt % DMSO. Different concentrations of formulated compounds or mixtures were pipetted into the aphid diet, using a custom built pipetter, at two replications.
# as §1
# After application, 5-8 adult aphids were placed on the artificial membrane inside the microtiter plate wells. The aphids were then allowed to suck on the treated aphid diet and incubated at 23±1° C., 50±5% RH for 3 days. Aphid mortality and fecundity was then visually assessed.
# [3] = mixing partner alone, ppm 0.08 + 0, 5 days
# [4] = mixing partner alone, ppm 0.08 + 0, 3 days
# [5] = mixing partner alone, ppm 40 + 0, 3 days
# [6] = mixing partner alone, ppm 0.4 + 0, 3 days
compound,measurement,setting,value
abamectin,Average Control %,[1]; [3],0%
same,Average Control %,[2]; [4],0%
"CN1COCN(Cc2cnc(Cl)s2)/C1=N\[N+](=O)[O-] [Thiamethoxam, thiamethoxam]",Average Control %,[1]; [3],0%
same,Average Control %,[2]; [4],0%
"CC1=NNC(=O)N(/N=C/c2cccnc2)C1 [Pymetrozine, pymetrozine]",Average Control %,[2]; [5],50%
"CC(C)(C)c1ccc(CSc2cnn(C(C)(C)C)c(=O)c2Cl)cc1 [Pyridaben, pyridaben]",Average Control %,[2]; [5],0%
"Cc1cc(C)cc(CC(NC2=NCCS2)c2cccc(C)c2C)c1 (stereo not drawn) [C.33, (4,5-Dihydro-thiazol-2-yl)-[2-(3,5-dimethyl-phenyl)-1-(2,3-dimethyl-phenyl)-ethyl]-amine]",Average Control %,"[1]; compound C.33 alone, ppm 0 + 0.8, 5 days",0%
same,Average Control %,"[2]; compound C.33 alone, ppm 0 + 0.8, 3 days",0%
same,Average Control %,"[2]; compound C.33 alone, ppm 0 + 4, 3 days",0%
same,Average Control %,"[2]; compound C.33 alone, ppm 0 + 20, 3 days",0%
same,Average Control %,"[2]; compound C.33 alone, ppm 0 + 20, 3 days, listed as test compound",50%
"CC1(C)C(C=C(Cl)Cl)C1C(=O)OC(C#N)c1cccc(Oc2ccccc2)c1 (stereo not drawn) [Alphacypermethrin, alpha-cypermethrin]",Average Control %,"[2]; mixing partner alone, ppm 10 + 0, 3 days",50%
"N#Cc1nn(-c2c(Cl)cc(C(F)(F)F)cc2Cl)c(N)c1[S+]([O-])C(F)(F)F (stereo not drawn) [Fipronil, fipronil]",Average Control %,"[1]; mixing partner alone, ppm 2 + 0, 5 days",25%
same,Average Control %,[2]; [6],0%
"CNC(=O)c1cc(Cl)cc(C)c1NC(=O)c1cc(Br)nn1-c1ncccc1Cl [Chlorantraniliprole, chlorantraniliprole]",Average Control %,[2]; [6],50%
